Legend:
[1] = test system: RAD51^K133A expressing cells; assay: miniHPRT loss of heterozygosity (LOH) assay, TG-resistant cells; format: cell-based, mouse; settings: control versus compounds p<0.018, average of three replicates, FIG. 8A
Description: To evaluate loss of heterozygosity, the loss of function (LOF) of miniHPRT was measured by survival in 6-TG. ES cells were grown in 1× hypoxanthine, aminopterin, thymidine (HAT) for at least 4 days followed by growth in 1× HT for 2 days and then no selection for 1 day. Cells were counted and seeded at 2×10^5 cells/10 cm feeder plates (3 plates) and selected in 10 μM 6-thioguanine (6-TG). For plating efficiency, 2000 cells were seeded on two wells of 6-well feeder plate. Eight days after plating, the number of 6-TG resistant colonies was counted. […] That is >159-fold difference. The average of three biological replicates are presented (p<0.0001 for lane 4 versus lanes 5 and 6, unpaired student T test). Deletion of TREX2 in HsRAD51^K133A expressing cells reduces loss of heterozygosity to levels lower than in wild type cells. Therefore, TREX2 caused greatest loss of heterozygosity and gross chromosomal rearrangements in HR-defective cells.
TREX2-deletion also imparts a synthetic phenotype in HR-mutant and MMR-mutant cells to hydroxyurea (HU) and camptothecin (CPT). Both CPT and HU stall RFs and are used for cancer therapy. CPT binds type 1 […] to DNA to cause a break when a replication fork collides into it while HU inhibits ribonucleotide reductase to deplete nucleotides. Therefore, TX2Is enhance cytotoxicity of chemotherapeutic agents in cancer cells while protecting the patient from mutations to reduce the risk of therapy-related disease. RAD51^K133A was expressed in mouse ES cells to negatively alter HR. In these HR defective cells, TREX2-deletion decreased survival to camptothecin and reduced loss of heterozygosity (LOH) to levels lower than cells expressing RAD51 wild type (WT) and TREX2 WT. LOH is loss of miniHPRT, which can be scored as resistance to 6-thioguanine (TG). FIGS. 5A and 5B are graphical representations of the effects of TREX2-deletions measured as survival fractions. […] The average of three biological replicates are presented.
Compounds #1, 6, and 10 reduce LOH in RAD51^K133A expressing cells using miniHPRT. […]

msh2^−/− cells = assay: puro(A)10 polymerase slippage assay, puromycin resistant colonies; format: cell-based, mouse; settings: puro(A)10 reporter, 10 μM TREX2 inhibitor, colonies counted about day 10, DMSO versus compounds p<0.02, FIGS. 8B, 8C
[2] = test system: mouse embryonic stem (ES) cells; assay: reduction of mutations in mouse ES cells by screening hits; format: cell-based; settings: five of nineteen screening hits
Text: Assays as described here were used to screen a Chembridge Diverset library (30,000 compounds). […] These small molecules are: 4-benzoyl-2-methyphenyl (2-nitrophenoxy) acetate; N-benzyl-2-([bis(furan-2-yl)-1,2,4-triazin-3-yl] sulfanyl) acetamide; 6-(benzylcarbamoyl)-1-methycyclohex-3-ene-1-carboxylic acid; 8-(phenylamino)naphthalene-1-sulfonic acid; and benzyl 6-(furan-2-yl)-3-methyl-4-oxo-4,5,6,7-tetrahydro-1H-indole-2-carboxylate. […] TX2Is appear to be nontoxic to cells and TREX2-deletion was asymptomatic for >50% of life span.

ES cells = assay: response of ES cells to hydroxyurea (RPA32 phosphorylation, chromatid breaks)

SMILES	LOH (percentage of TG-resistant cells) [1]	spontaneous polymerase slippage (fraction of puromycin resistant cells) (msh2^−/− cells)	effect on mutations in mouse ES cells [2]	chromatid breaks (ES cells; high HU dose)	DNA damage response (RPA32 phosphorylation) (ES cells; high HU dose (4 mM, 5 hours))	DNA damage response (RPA32 phosphorylation) (ES cells; low HU dose (0.5 mM, 1.5 hours))
O=C(CSc1nnc(-c2ccco2)c(-c2ccco2)n1)NCc1ccccc1 [Compound 10, N-benzyl-2-([bis(furan-2-yl)-1,2,4-triazin-3-yl]sulfanyl) acetamide]	reduce LOH	reduce spontaneous polymerase slippage	reduce a range of mutations	–	–	–
Cc1c(C(=O)OCc2ccccc2)[nH]c2c1C(=O)CC(c1ccco1)C2 (stereo not drawn) [benzyl 6-(furan-2-yl)-3-methyl-4-oxo-4,5,6,7-tetrahydro-1H-indole-2-carboxylate]	–	–	reduce a range of mutations	–	–	–
Cc1cc(C(=O)c2ccccc2)ccc1OC(=O)COc1ccccc1[N+](=O)[O-] [Compound 1, 4-benzoyl-2-methyphenyl (2-nitrophenoxy) acetate]	reduce LOH	reduce spontaneous polymerase slippage	reduce a range of mutations	–	–	–
NC(=O)NO [HU, hydroxyurea]	–	–	–	produced more chromatid breaks	induced both an ATR and a DNA-PKCS response	induced an ATR response
O=S(=O)(O)c1cccc2cccc(Nc3ccccc3)c12 [Compound 6, 8-(phenylamino)naphthalene-1-sulfonic acid]	reduce LOH	reduce spontaneous polymerase slippage	reduce a range of mutations	–	–	–
CC1(C(=O)O)CC=CCC1C(=O)NCc1ccccc1 (stereo not drawn) [Compound 11, 6-(benzylcarbamoyl)-1-methycyclohex-3-ene-1-carboxylic acid]	–	reduce spontaneous polymerase slippage	reduce a range of mutations	–	–	–
